Broadly, the DC50 is the concentration at which degradation of the target reaches its halfway point. Broadly, the Dmax is the largest share of the target that was removed.

The subject of experiment [1] is EGFR Del19/T790M/C797S (BaF3-DTC cells). The experiment in a line: EGFR degradation HTRF assay, BaF3-DTC cells. To be noted: 16h treatment; for DTC Dmax (%): maximum percentage of degradation; for DC50: read-out: DTC DC50. The class given is cell-based. In a few lines:
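BaF3 (WT, Del19/T790M/C797S) and HCC827 cells exposed 16 h at 37 °C, 5% CO2 to compounds in 0.2% DMSO medium, 8 doses from 10 uM top, 5-fold steps. Lysates read by HTRF (665/620 nm); degradation % vs DMSO control, DC50 from four-parameter fit, Dmax as maximal degradation.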
A general note: Time-resolved FRET reads energy transfer from a long-lived donor to a nearby acceptor.

Experiment [2] has as its target T1, EGFR L858R/T790M/C797S (BaF3-LTC cells) (Homo sapiens, UniProt P00533, C797S/L858R/T790M).
T1 construct: expressed in transfected cells; host or cells: BaF3
Briefly: EGFR degradation HTRF assay, BaF3-LTC cells. It is filed as cell-based. To be noted: BaF3-LTC, 16h treatment; for Dmax: maximum percentage of degradation, read-out: LTC Dmax (%); for DC50: read-out: LTC DC50. In a few lines:
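Cells treated 16 h at 37 °C, 5% CO2 in medium with 0.2% DMSO; top final concentration 10 uM, 5-fold dilution, 8 doses. Lysates read by HTRF (665/620 nm); degradation % versus DMSO high control, DC50 from four-parameter fit, Dmax as maximal degradation.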

T1 sequence (P00533 25-1210 T790M/C797S/L858R): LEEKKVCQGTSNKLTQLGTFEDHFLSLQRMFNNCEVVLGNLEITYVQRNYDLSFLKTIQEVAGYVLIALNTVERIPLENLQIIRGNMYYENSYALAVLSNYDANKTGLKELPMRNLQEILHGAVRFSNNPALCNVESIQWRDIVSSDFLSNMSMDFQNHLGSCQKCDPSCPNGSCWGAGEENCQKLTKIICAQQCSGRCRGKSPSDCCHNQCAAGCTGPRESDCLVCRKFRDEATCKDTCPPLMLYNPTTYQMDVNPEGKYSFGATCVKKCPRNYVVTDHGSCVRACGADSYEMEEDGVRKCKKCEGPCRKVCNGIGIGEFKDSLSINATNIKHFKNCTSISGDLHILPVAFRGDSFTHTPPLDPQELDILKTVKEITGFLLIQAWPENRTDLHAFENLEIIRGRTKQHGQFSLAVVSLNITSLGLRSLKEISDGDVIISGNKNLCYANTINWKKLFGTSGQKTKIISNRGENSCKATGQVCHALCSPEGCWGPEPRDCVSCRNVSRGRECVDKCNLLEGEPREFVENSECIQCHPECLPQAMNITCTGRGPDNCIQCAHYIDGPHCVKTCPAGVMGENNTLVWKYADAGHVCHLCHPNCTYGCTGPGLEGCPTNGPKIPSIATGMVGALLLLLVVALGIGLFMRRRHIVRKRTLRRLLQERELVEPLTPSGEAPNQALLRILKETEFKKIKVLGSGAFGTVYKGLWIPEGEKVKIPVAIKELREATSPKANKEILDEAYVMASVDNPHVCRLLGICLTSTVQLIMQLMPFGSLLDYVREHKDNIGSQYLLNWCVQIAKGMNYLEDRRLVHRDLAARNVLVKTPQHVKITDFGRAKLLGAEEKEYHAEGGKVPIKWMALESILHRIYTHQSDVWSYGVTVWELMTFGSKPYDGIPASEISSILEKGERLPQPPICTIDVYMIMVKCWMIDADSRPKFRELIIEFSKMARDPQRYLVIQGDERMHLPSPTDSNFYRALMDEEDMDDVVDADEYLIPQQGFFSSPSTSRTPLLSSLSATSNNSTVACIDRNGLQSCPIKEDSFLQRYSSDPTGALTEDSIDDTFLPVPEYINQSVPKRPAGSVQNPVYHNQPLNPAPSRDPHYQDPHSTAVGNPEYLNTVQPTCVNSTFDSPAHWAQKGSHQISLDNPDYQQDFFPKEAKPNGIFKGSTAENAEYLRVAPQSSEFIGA

In the case of `CCc1cc(Nc2ncc(Br)c(Nc3ccc4nccnc4c3P(C)(C)=O)n2)c(OC)cc1N1CCC(N2CCN(C(=O)[C@H]3CCN(c4ccc(C5CCC(=O)NC5=O)cc4)C3)CC2)CC1` (stereo partly drawn) [Example 223, 3-(4-((S)-3-(4-(1-(4-((5-bromo-4-((5-(dimethylphosphoryl)quinoxalin-6-yl)amino)pyrimidin-2-yl)amino)-2-ethyl-5-methoxyphenyl)piperidin-4-yl)piperazine-1-carbonyl)pyrrolidin-1-yl)phenyl)piperidine-2,6-dione], in experiment [1], the “DTC Dmax (%)” value amounted to 86.61% and the 50% degradation concentration (DC50) was determined as 8.56 nM. Moreover, in experiment [2], the Dmax was found to be 82.9% and the DC50 was 31.3 nM.
In the same order, the values of `CCc1cc(Nc2ncc(Br)c(Nc3ccc4nccnc4c3P(C)(C)=O)n2)c(OC)cc1N1CCC(N2CCN(CCc3ccc(C4(C)CCC(=O)NC4=O)cc3)CC2)CC1` (centres unmarked) [Example 280, 3-(4-(2-(4-(1-(4-((5-bromo-4-((5-(dimethylphosphoryl)quinoxalin-6-yl)amino)pyrimidin-2-yl)amino)-2-ethyl-5-methoxyphenyl)piperidin-4-yl)piperazin-1-yl)ethyl)phenyl)-3-methylpiperidine-2,6-dione] are 68.21%, 152 nM, 76% and 248 nM.
In the same order, the values of `CCc1cc(Nc2ncc(Br)c(Nc3ccc4nccnc4c3P(C)(C)=O)n2)c(OC)cc1N1CCC(N2CCN(CC3CN(c4ccc(C5CCC(=O)NC5=O)c(C#N)c4)C3)CC2)CC1` (centres unmarked) [Example 251, 5-(3-((4-(1-(4-((5-bromo-4-((5-(dimethylphosphoryl)quinoxalin-6-yl)amino)pyrimidin-2-yl)amino)-2-ethyl-5-methoxyphenyl)piperidin-4-yl)piperazin-1-yl)methyl)azetidin-1-yl)-2-(2,6-dioxopiperidin-3-yl)benzonitrile] are 82.01%, 7.72 nM, 87% and 2.93 nM.
Consider `CCc1cc(Nc2ncc(Br)c(Nc3ccc4nc(C)ccc4c3P(C)(C)=O)n2)c(OC)cc1N1CCC(N2CCN(C(=O)C3CN(CCc4cc(F)c(C5CCC(=O)NC5=O)c(F)c4)C3)CC2)CC1` (centres unmarked) [Example 708, 3-(4-(2-(3-(4-(1-(4-((5-bromo-4-((5-(dimethylphosphoryl)-2-methylquinolin-6-yl)amino)pyrimidin-2-yl)amino)-2-ethyl-5-methoxyphenyl)piperidin-4-yl)piperazine-1-carbonyl)azetidin-1-yl)ethyl)-2,6-difluorophenyl)piperidine-2,6-dione], for which, in experiment [1], the “DTC Dmax (%)” value was determined as 81.62% and the DC50 stood at 15.2 nM. In experiment [2], the Dmax turned out to be 91.3% and the DC50 is 22.7 nM.
In the same order, the values of `CCc1cc(Nc2ncc(Br)c(Nc3ccc4nc(C)ccc4c3P(C)(C)=O)n2)c(OC)cc1N1CCC(N2CCN(CC3CCN(c4cc(F)c(NC5CCC(=O)NC5=O)c(F)c4)CC3)CC2)CC1` (centres unmarked) [Example 718, 3-((4-(4-((4-(1-(4-((5-bromo-4-((5-(dimethylphosphoryl)-2-methylquinolin-6-yl)amino)pyrimidin-2-yl)amino)-2-ethyl-5-methoxyphenyl)piperidin-4-yl)piperazin-1-yl)methyl)piperidin-1-yl)-2,6-difluorophenyl)amino)piperidine-2,6-dione] are 79.24%, 25.6 nM, 89.6% and 121 nM.
`CCc1cc(Nc2ncc(Br)c(Nc3ccc4nccnc4c3P(C)(C)=O)n2)c(OC)cc1N1CCC(N2CCN(CCc3cc(F)c(C4CCC(=O)NC4=O)c(Cl)c3)CC2)CC1` (centres unmarked) [Example 238, 3-(4-(2-(4-(1-(4-((5-bromo-4-((5-(dimethylphosphoryl)quinoxalin-6-yl)amino)pyrimidin-2-yl)amino)-2-ethyl-5-methoxyphenyl)piperidin-4-yl)piperazin-1-yl)ethyl)-2-chloro-6-fluorophenyl)piperidine-2,6-dione]: in experiment [1], the “DTC Dmax (%)” value is on record as 93.21% and the DC50 was found to be 9.2 nM. Also, in experiment [2], the Dmax is 88.3% and the DC50 came out at 39.3 nM.
In the same order, the values of `CCc1cc(Nc2ncc(Br)c(Nc3ccc4nc(C)ccc4c3P(C)(C)=O)n2)c(OC)cc1N1CCC(N2CCN(CCc3ccc4nn(C5CCC(=O)NC5=O)cc4c3)CC2)CC1` (centres unmarked) [Example 257, 3-(5-(2-(4-(1-(4-((5-bromo-4-((5-(dimethylphosphoryl)-2-methylquinolin-6-yl)amino)pyrimidin-2-yl)amino)-2-ethyl-5-methoxyphenyl)piperidin-4-yl)piperazin-1-yl)ethyl)-2H-indazol-2-yl)piperidine-2,6-dione] are 93.75%, 3.94 nM, 90.7% and 17.4 nM.
In the same order, the values of `CCc1cc(Nc2ncc(Br)c(Nc3ccc4nccnc4c3P(C)(C)=O)n2)c(OC)cc1N1CCC(N2CCN(C(=O)[C@H]3CCN(c4ccc5c(c4)C(=O)N(C4CCC(=O)NC4=O)C5=O)C3)CC2)CC1` (stereo partly drawn) [Example 66, 5-((S)-3-(4-(1-(4-((5-bromo-4-((5-(dimethylphosphoryl)quinoxalin-6-yl)amino)pyrimidin-2-yl)amino)-2-ethyl-5-methoxyphenyl)piperidin-4-yl)piperazine-1-carbonyl)pyrrolidin-1-yl)-2-(2,6-dioxopiperidin-3-yl)isoindoline-1,3-dione] are 92.43%, 4.19 nM, 86.3% and 11 nM.
Take `CCc1cc(Nc2ncc(Br)c(Nc3ccc4nccnc4c3P(C)(C)=O)n2)c(OC)cc1N1CCC(N2CCN(CCc3cc(Cl)c(C4CCC(=O)NC4=O)cc3F)CC2)CC1` (centres unmarked) [Example 166, 3-(4-(2-(4-(1-(4-((5-bromo-4-((5-(dimethylphosphoryl)quinoxalin-6-yl)amino)pyrimidin-2-yl)amino)-2-ethyl-5-methoxyphenyl)piperidin-4-yl)piperazin-1-yl)ethyl)-2-chloro-5-fluorophenyl)piperidine-2,6-dione]: in experiment [1], the “DTC Dmax (%)” value worked out at 85.99% and the DC50 is 13.5 nM. Further, in experiment [2], the Dmax amounted to 80.1% and the DC50 was determined as 49.3 nM.
Taken in the same sequence, the figures for `CCc1cc(Nc2ncc(Br)c(Nc3ccc4nc(C)ccc4c3P(C)(C)=O)n2)c(OC)cc1N1CCC(N2CCN(C(=O)[C@@H]3CCN(c4cc(F)c(C5CCC(=O)NC5=O)c(F)c4)C3)CC2)CC1` (stereo partly drawn) [Example 208, 3-(4-((R)-3-(4-(1-(4-((5-bromo-4-((5-(dimethylphosphoryl)-2-methylquinolin-6-yl)amino)pyrimidin-2-yl)amino)-2-ethyl-5-methoxyphenyl)piperidin-4-yl)piperazine-1-carbonyl)pyrrolidin-1-yl)-2,6-difluorophenyl)piperidine-2,6-dione] were 97.62%, 1.47 nM, 93.9% and 4.13 nM.
Taken in the same sequence, the figures for `CCc1cc(Nc2ncc(Br)c(Nc3ccc4ncccc4c3P(C)(C)=O)n2)c(OC)cc1N1CCC(N2CCN(CCC3CCN(c4cc(F)c(C5CCC(=O)NC5=O)c(F)c4)CC3)CC2)CC1` (centres unmarked) [Example 202, 3-(4-(4-(2-(4-(1-(4-((5-bromo-4-((5-(dimethylphosphoryl)quinolin-6-yl)amino)pyrimidin-2-yl)amino)-2-ethyl-5-methoxyphenyl)piperidin-4-yl)piperazin-1-yl)ethyl)piperidin-1-yl)-2,6-difluorophenyl)piperidine-2,6-dione] were 93.39%, 7.6 nM, 87.8% and 18.5 nM.
In the same order, the values of `CCc1cc(Nc2ncc(Br)c(Nc3ccc4nc(C)c(C)cc4c3P(C)(C)=O)n2)c(OC)cc1N1CCC(N2CCN(CCc3cc(F)c(C4CCC(=O)NC4=O)c(F)c3)CC2)CC1` (centres unmarked) [Example 707, 3-(4-(2-(4-(1-(4-((5-bromo-4-((5-(dimethylphosphoryl)-2,3-dimethylquinolin-6-yl)amino)pyrimidin-2-yl)amino)-2-ethyl-5-methoxyphenyl)piperidin-4-yl)piperazin-1-yl)ethyl)-2,6-difluorophenyl)piperidine-2,6-dione] are 82.86%, 3.29 nM, 92.1% and 5.79 nM.
For the compound `CCc1cc(Nc2ncc(Br)c(Nc3ccc4nccnc4c3P(C)(C)=O)n2)c(OC)cc1N1CCC(N2CCN(CCc3ccc4nn(C5CCC(=O)NC5=O)cc4c3)CC2)CC1` (centres unmarked) [Example 309, 3-(5-(2-(4-(1-(4-((5-bromo-4-((5-(dimethylphosphoryl)quinoxalin-6-yl)amino)pyrimidin-2-yl)amino)-2-ethyl-5-methoxyphenyl)piperidin-4-yl)piperazin-1-yl)ethyl)-2H-indazol-2-yl)piperidine-2,6-dione], in experiment [1], the “DTC Dmax (%)” value was determined as 92.99% and the DC50 came to 5.89 nM. In addition, in experiment [2], the Dmax turned out to be 87.2% and the DC50 is 32.1 nM.
In the same order, the values of `CCc1cc(Nc2ncc(Br)c(Nc3ccc4nccnc4c3P(C)(C)=O)n2)c(OC)cc1N1CCC(N2CCN(CCc3ccc(C4CCC(=O)NC4=O)c(F)c3)[C@H](COC)C2)CC1` (stereo partly drawn) [Example 292, 3-(4-(2-((S)-4-(1-(4-((5-bromo-4-((5-(dimethylphosphoryl)quinoxalin-6-yl)amino)pyrimidin-2-yl)amino)-2-ethyl-5-methoxyphenyl)piperidin-4-yl)-2-(methoxymethyl)piperazin-1-yl)ethyl)-2-fluorophenyl)piperidine-2,6-dione] are 87.11%, 15.1 nM, 84.2% and 32.3 nM.

These data come from patent US20230265116A1, “DEGRADATION OF (EGFR) BY CONJUGATION OF EGFR INHIBITORS WITH E3 LIGASE LIGAND AND METHODS OF USE” (BEIGENE, LTD., priority 2020, published 2023).
